From PubChem BioAssay AID330 (DTP/NCI, 2004)
“And” between values parts separate entries of the source, which are not always exact repeats. Equal values may be shown once. Toxic doses and inconclusive results are not listed. Rule for the calls: active = survival T/C of 150% or more; inactive = T/C below 125% in these data.

System: P388 leukemia ip, CD2F1 mice, survival T/C
Assay: NCI In Vivo Anticancer Drug Screen. Data for tumor model P388 Leukemia (intraperitoneal) in CD2F1 (CDF1) mice
Details: endpoint: median survival time, higher = longer survival
Procedure, shortened: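 Mice carrying the transplanted tumor received test compound or vehicle. Survival was recorded in each group, and the value is the treated-group measurement divided by that of the vehicle-treated control group.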

[1] = dose: 12.5 mg/kg/injection, schedule: Q01DX009 (ip), vehicle: saline with Tween-80
[2] = dose: 50.0 mg/kg/injection, schedule: Q01DX005 (ip), vehicle: Klucel (hydroxypropylcellulose) (HPC)
[3] = dose: 100.0 mg/kg/injection, schedule: Q01DX005 (ip), vehicle: Klucel (hydroxypropylcellulose) (HPC)
[4] = dose: 200.0 mg/kg/injection, schedule: Q01DX005 (ip), vehicle: Klucel (hydroxypropylcellulose) (HPC)
[5] = dose: 50.0 mg/kg/injection, schedule: Q01DX009 (ip), vehicle: saline with Tween-80
[6] = dose: 25.0 mg/kg/injection, schedule: Q01DX005 (ip), vehicle: Klucel (hydroxypropylcellulose) (HPC)
[7] = dose: 50.0 mg/kg/injection, schedule: Q04DX003 (ip), vehicle: Klucel (hydroxypropylcellulose) (HPC)
[8] = dose: 100.0 mg/kg/injection, schedule: Q04DX003 (ip), vehicle: Klucel (hydroxypropylcellulose) (HPC)
[9] = dose: 50.0 mg/kg/injection, schedule: Q01DX009 (ip), vehicle: Klucel (hydroxypropylcellulose) (HPC)
[10] = dose: 100.0 mg/kg/injection, schedule: Q01DX009 (ip), vehicle: Klucel (hydroxypropylcellulose) (HPC)
[11] = dose: 200.0 mg/kg/injection, schedule: Q01DX009 (ip), vehicle: Klucel (hydroxypropylcellulose) (HPC)
[12] = dose: 50.0 mg/kg/injection, schedule: Q01DX005 (ip), vehicle: saline with Tween-80
[13] = dose: 100.0 mg/kg/injection, schedule: Q01DX005 (ip), vehicle: saline with Tween-80
[14] = dose: 200.0 mg/kg/injection, schedule: Q01DX005 (ip), vehicle: saline with Tween-80
[15] = dose: 100.0 mg/kg/injection, schedule: Q01DX009 (ip), vehicle: saline with Tween-80
[16] = dose: 100.0 mg/kg/injection, schedule: Q04DX003 (ip), vehicle: saline with Tween-80
[17] = dose: 200.0 mg/kg/injection, schedule: Q04DX003 (ip), vehicle: saline with Tween-80
[18] = dose: 400.0 mg/kg/injection, schedule: Q04DX003 (ip), vehicle: saline with Tween-80

Measured: T/C

CC1=C(/C=C/C(C)=N/NC(N)=S)C(C)(C)CCC1
inactive: dose: 6.25 mg/kg/injection, schedule: Q01DX009 (ip), vehicle: saline with Tween-80 100 % of control | [1] 115 % of control

O=S(=O)(O)CCC(O)S(=O)(=O)O (centres undefined)
inactive: dose: 60.0 mg/kg/injection, schedule: Q01DX005 (ip), vehicle: saline 102 % of control | dose: 120.0 mg/kg/injection, schedule: Q01DX005 (ip), vehicle: saline 108 % of control | dose: 240.0 mg/kg/injection, schedule: Q01DX005 (ip), vehicle: saline 94 % of control

OCC(O)c1c(-c2ccccc2)c(-c2ccccc2)c2n1CCC2 (centres undefined)
inactive: [2] 96 % of control | [3] 93 % of control | [4] 92 % of control

CCOc1ccc(NC(=O)OCCN2CCN(CCc3ccccc3)C(C)C2)cc1 (centres undefined)
inactive: [1] 97 % of control | dose: 25.0 mg/kg/injection, schedule: Q01DX009 (ip), vehicle: saline with Tween-80 94 % of control | [5] 100 % of control

C[C@@H]1C(=O)C[C@H]2C(C)(C)CCC[C@]2(C)[C@@]1(O)CCc1ccoc1
inactive: [6] 100 % of control | [2] 100 % of control | [3] 100 % of control | [4] 96 % of control

CS(=O)(=O)OCC(O)C(O)C(OS(C)(=O)=O)C(O)COS(C)(=O)=O (centres undefined)
inactive: [7] 100 % of control | [8] 100 % of control

Cc1c(O)ccc(C(=O)C(=O)C(C)C)c1O
inactive: [9] 115 % of control | [10] 116 % of control | [11] 116 % of control

O=C1CCC2OC3CCC(=O)N3CN12 (centres undefined)
inactive: [12] 97 % of control | [13] 98 % of control | [14] 98 % of control

COc1cc2ccc3c(c2cc1OC)C=[N+](C)CC3
inactive: dose: 44.0 mg/kg/injection, schedule: Q01DX009 (ip), vehicle: saline with Tween-80 100 % of control | dose: 66.0 mg/kg/injection, schedule: Q01DX009 (ip), vehicle: saline with Tween-80 109 % of control | [15] 109 % of control | dose: 150.0 mg/kg/injection, schedule: Q01DX009 (ip), vehicle: saline with Tween-80 113 % of control

COc1ccc(/C(=C/c2c(C(=O)O)oc3ccccc23)c2ccccc2)cc1
inactive: dose: 100.0 mg/kg/injection, schedule: Q01DX001 (ip), vehicle: saline with Tween-80 97 % of control | dose: 200.0 mg/kg/injection, schedule: Q01DX001 (ip), vehicle: saline with Tween-80 99 % of control

O=C1OC(=O)C2C3c4ccccc4C(c4ccccc43)C12 (centres undefined)
inactive: [12] 115 % of control and 117 % of control | [13] 110 % of control and 121 % of control | [14] 120 % of control and 122 % of control | dose: 400.0 mg/kg/injection, schedule: Q01DX005 (ip), vehicle: saline with Tween-80 121 % of control

COc1cccc2c1[C@@]1(C)C3C(=O)OC(C)(c4ccccc43)[C@@]1(C)C2=O (some centres undefined)
inactive: dose: 60.0 mg/kg/injection, schedule: Q01DX005 (ip), vehicle: saline with Tween-80 108 % of control | dose: 120.0 mg/kg/injection, schedule: Q01DX005 (ip), vehicle: saline with Tween-80 110 % of control | dose: 240.0 mg/kg/injection, schedule: Q01DX005 (ip), vehicle: saline with Tween-80 103 % of control

Cc1cc2ccccc2c2nncn12
inactive: [5] 103 % of control | [15] 103 % of control

CN(C)c1ccsc(=S)c1
inactive: dose: 6.25 mg/kg/injection, schedule: Q01DX005 (ip), vehicle: Klucel (hydroxypropylcellulose) (HPC) 102 % of control | dose: 12.5 mg/kg/injection, schedule: Q01DX005 (ip), vehicle: Klucel (hydroxypropylcellulose) (HPC) 101 % of control | [6] 105 % of control | [2] 98 % of control

CC(=O)N1C(=O)N(Cl)C(=O)C1(C)c1cccs1 (centres undefined)
inactive: [16] 100 % of control | [17] 95 % of control | [18] 90 % of control

CC(C)C(CC[C@@H](C)C1CC[C@@]2(C)C3=C(CC[C@]12C)[C@@]1(C)CC[C@H](O)C(C)(C)[C@@H]1CC3)S[As](C)C (some centres undefined)
inactive: [2] 92 % of control | [3] 95 % of control | [4] 97 % of control

C1CCN(CCC[Si]23OCCN(CCO2)CCO3)CC1
inactive: [12] 102 % of control | [13] 108 % of control | [14] 106 % of control

COc1ccc(NS(=O)(=O)c2ccc(NC(=O)NCCCl)cc2)nn1
inactive: [6] 98 % of control | [2] 98 % of control | [4] 98 % of control

COC(=O)c1[nH]c(=O)c2ccc([N+](=O)[O-])cc2c1O
inactive: [5] 86 % of control | [15] 88 % of control | dose: 200.0 mg/kg/injection, schedule: Q01DX009 (ip), vehicle: saline with Tween-80 86 % of control

O=C(NC(ON1CCCCC1)C(=O)O)c1ccccc1 (centres undefined)
inactive: [9] 104 % of control | [10] 102 % of control | [11] 98 % of control

OCC1CC=CCC1 (centres undefined)
inactive: [16] 90 % of control | [17] 100 % of control | [18] 90 % of control

Cc1c([C@H](C)[C@@H]2NC[C@@H](C)C[C@H]2O)ccc2c1C[C@H]1[C@H]2CC=C2C[C@@H](O)CC[C@@]21C
inactive: dose: 0.75 mg/kg/injection, schedule: Q01DX009 (ip), vehicle: saline with Tween-80 108 % of control | dose: 1.5 mg/kg/injection, schedule: Q01DX009 (ip), vehicle: saline with Tween-80 115 % of control | dose: 3.0 mg/kg/injection, schedule: Q01DX009 (ip), vehicle: saline with Tween-80 101 % of control and 113 % of control

N#CC1C(=O)NC(=O)C(C#N)C1c1ccc(Cl)c(Cl)c1 (centres undefined)
inactive: [9] 99 % of control | [10] 100 % of control | [11] 102 % of control

O=C(NC(Cc1ccccc1F)C(=O)O)c1ccccc1 (centres undefined)
inactive: dose: 25.0 mg/kg/injection, schedule: Q01DX009 (ip), vehicle: other 98 % of control | dose: 50.0 mg/kg/injection, schedule: Q01DX009 (ip), vehicle: other 105 % of control | dose: 100.0 mg/kg/injection, schedule: Q01DX009 (ip), vehicle: other 98 % of control

CCOP(=S)(OCC)Oc1cc(C)nc(C(C)C)n1
inactive: [5] 112 % of control | [15] 111 % of control

Cc1cc(O)c2c(c1)C(=O)c1cccc(O)c1C2=O
inactive: dose: 6.25 mg/kg/injection, schedule: Q01DX009 (ip), vehicle: saline 100 % of control | dose: 12.5 mg/kg/injection, schedule: Q01DX009 (ip), vehicle: saline 111 % of control | dose: 25.0 mg/kg/injection, schedule: Q01DX009 (ip), vehicle: saline 117 % of control | dose: 50.0 mg/kg/injection, schedule: Q01DX009 (ip), vehicle: saline 108 % of control

CC(c1ccccc1)[P+](c1ccccc1)(c1ccccc1)c1ccccc1 (centres undefined)
inactive: dose: 0.78 mg/kg/injection, schedule: Q01DX009 (ip), vehicle: saline 112 % of control and 93 % of control | dose: 1.56 mg/kg/injection, schedule: Q01DX009 (ip), vehicle: saline 109 % of control and 118 % of control | dose: 3.13 mg/kg/injection, schedule: Q01DX009 (ip), vehicle: saline 118 % of control and 121 % of control

COC1CCCC2OC3(OC)C(OC)CCCC3OC12OC (centres undefined)
inactive: [7] 100 % of control | [8] 97 % of control | dose: 200.0 mg/kg/injection, schedule: Q04DX003 (ip), vehicle: Klucel (hydroxypropylcellulose) (HPC) 96 % of control
